# Experimental data as given in patent US6579696B1, “Polymyxin B conjugates” (priority 1992, dated 2003).
# Like-named read-outs stand apart in the source and are kept apart here.
# Assays:
# E. coli J5 [1] = format: cell-based; settings: Table 40
# [2] = tested on: mouse monoclonal anti-fluorescein antibody (#4-4-20); format: binding
# Source text: Millipolarization data was hand calculated using the above equations as described for the fully automated instrument. Total intensity is not represented in the following tables. Table 48 illustrates the reactivity of PMB-Cys-Fl when reacted with mouse monoclonal anti-fluorescein antibody (#4-4-20) obtained from Edward M. Voss at the University of Illinois Urbana.
# E. coli 0111:B4 bacteria = format: binding; settings: in °C (unit assumed)
# E. coli 0111: B4 = format: binding; settings: bacteria coated at 5.0 ug/ml, washed; no antibody
# Procedure: (§1) Staph. aureus and E. coli 0111: B4 were cultured in TSB media at 37 degrees C with shaking. Cells were collected by centrifugation and suspended in 50 mM sodium phosphate buffer, pH 6.8. The cells were again collected by centrifugation and suspended in […] sodium phosphate buffer containing 0.025% sodium azide (buffer).
# (§2) The bacteria were diluted with buffer to an absorbance of 1.0 at 620 nm. PMB-Cys-Mal-FL was added to 2.5 ml of each diluted bacterial suspension, to a final concentration of 5.0 ug/ml. The suspensions were incubated at ambient temperature for 5 minutes. The bacteria were collected by centrifugation and suspended in buffer, repeated for a total of three times. The bacteria were then suspended in buffer and Tween 20 detergent was added to a final concentration of 0.1%. The bacteria were again collected by centrifugation and suspended in 1.5 ml buffer without Tween 20.
# (§3) The bacteria were diluted 10 fold with buffer and fluorescence was measured in a Sequoia-Turner model 450 Fluorometer using NB490 and SC515 filters with the gain at 5. Mouse monoclonal anti-fluorescein antibody 4-4-20 was added with mixing to the bacterial suspensions. Table 50 summarizes the experimental results.
# Staph. aureus = format: binding; settings: bacteria coated at 5.0 ug/ml, washed
# Procedure: as §1, §2, §3
# E. coli 0111:B4 [3] = format: cell-based; set-up: key: −: no agglutination; +: microagglutination; +++: macroagglutination; settings: avidin beads loaded with compound
# Procedure: (§4) 100 ul polystyrene beads (Spherotech […], 5% w/v) were aliquoted to two 1.5 mL microcentrifuge tubes, centrifuged 1 min at 12,000 g in microcentrifuge and washed 2×with 1 ml PBS (vortexed and recentrifuged 1-2 min after each wash). The beads were resuspended in 900 ul PBS, and 100 ul of 1 mg/ml solution of avidin (Sigma) added, and the tubes rotated overnight at room temperature. The beads were pelleted, and washed sequentially as described above with 1 ml PBS, PBS+0.5% tween 20 (PBST), and PBS, and each sample resuspended in 200 ul PBS. The samples were pooled and stored at 4 degrees.
# (§5) 20 ul avidin coated beads were aliquoted into 2×1.5 ml microcentrifuge tubes, and non-specifically binding sites blocked by rotating with 1 ml PBS+1% BSA for 1 hr at room temperature. […] The samples were pelleted, and washed with 1 ml PBS, repelleted and resuspended with 20 ul PBS. III Bacterial Agglutination Assays
# (§6) 5 ul of each resin was added to 20 ul bacteria (1/10 dilution of a saturated overnight culture) in independant depression wells (2 wells/bacteria tested). The samples were incubated 30 min at 37 degrees, swirled, and agglutination scored. (Note that −=no agglutination, +=microagglutination and +++=macroagglutination)
# E. coli HB101 = format: cell-based; set-up: key: −: no agglutination; +: microagglutination; +++: macroagglutination; settings: avidin beads loaded with compound
# Procedure: as §4, §5, §6
# Salmonella 34576 = format: cell-based; set-up: key: −: no agglutination; +: microagglutination; +++: macroagglutination; settings: avidin beads loaded with compound
# Procedure: as §4, §5, §6
# E. coli J5 [4] = format: cell-based; set-up: key: −: no agglutination; +: microagglutination; +++: macroagglutination; settings: for Agglutination by avidin beads: Table 53
# Procedure: as §4, §5, §6
# To determine if free Immunoadaptor™ compounds can also stably bind surface exposed bacterial structures, agglutination assays were performed using bacteria prebound to Immunoadaptor™ compounds. The assay was performed with J5 bacteria, since the agglutination signal (see table above) was the strongest with this strain. 40 ul avidin coated resin was blocked for 1 hr at room temperature with 1 ml PBS+1% BSA, pelleted as described above, and resuspended in 40 ul PBS. […] The following assays were performed:
# Incubated 1 hr at 37 degrees in depression well, swirled and agglutination scored.
# Incubated 10 min at 37 degrees then added 5 ul avidin coated beads. Incubated 1 hr at 37 degrees in depression well, swirled and agglutination scored.
# Incubated 15 min at 37 degrees, pelleted cells by centrifugation, washed with 100 ul PBS (resuspended cells with micropipetter) and repelleted. Cells were resuspended in 80 ul PBS, 20 ul aliquots distributed to depression well, 5 ul avidin coated beads added, and, incubated 1 hr at 37 degrees, swirled and agglutination scored.
# H16 bacterial strain = format: binding; settings: 1 ug/ml, Extravidin and anti-avidin chase
# [5] = tested on: J5 bacteria phagocytosed by J774A.1 mouse macrophage cell line; format: cell-based
# E. coli 0111:B4 [6] = tested on: E. coli 0111:B4
# [7] = biological target: avidin and chicken anti-PMB antibody (Gallus gallus, UniProt P02701)
# avidin and chicken anti-PMB antibody, sequence (P02701 25-152): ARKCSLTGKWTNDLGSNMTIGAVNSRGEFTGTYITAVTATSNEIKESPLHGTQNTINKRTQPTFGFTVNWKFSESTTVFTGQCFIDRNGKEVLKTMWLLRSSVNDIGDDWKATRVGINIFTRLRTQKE
# Procedure: The capture ELISA was performed as described below. […] The coating suspensions were decanted, and all wells were washed three times using PBS+0.5% Tween 20 (PBST). In order to block non-specific binding sites, 100 ul of 1% BSA (Sigma, St. Louis, Mo.) in PBS (blocking solution) was then added to each well, and the plates were incubated for 1 hr. at 37° C.
# The blocking solution was decanted, and duplicate samples of 150 ul of either PMB-Cy-Biotin or PMB-Cy-Fl added to the first well of a dilution series. The initial testing concentration of the premixed conjugate was 10 ng/ml in blocking buffer (see above), followed by 5 fold dilutions in blocking buffer. This was accomplished by serially transferring 30 ul aliquots to 120 ul buffer, mixing, and repeating the dilution into a fresh well. After the final dilution, 30 ul was removed from the well such that all wells contained 120 ul final volume. A total of 2 such dilutions were performed. […] Following this incubation, the serially diluted samples were decanted, and the wells were washed six times using PBST (Phosphate-Buffered Saline with Tween). To each well, 100 ul of 1/1000 diluted chicken anti-PMB antibody or chicken preimmune, diluted in blocking buffer was added, and the plate incubated 1 hr at 37° C. The antibody solutions were decanted and the plates were washed as described above. To each well, 100 ul of 1/1000 diluted rabbit anti-chicken IgG alkaline phosphatase (Sigma) diluted in blocking buffer was added, and the plate incubated 1 hr at 37° C. The antibody solutions were decanted and the plates were washed as described above, substituting 50 nM Na2CO3, pH 9.5 for the PBST in the final wash. The plates were developed by the addition of 100 ul of a solution containing 1 mg/ml para-nitro phenyl phosphate (Sigma, St. Louis, Mo.) dissolved in 50 nM Na2CO3, 10 mM MgCl2, pH 9.5 to each well, and incubating the plates at room temperature in the dark overnight. […] Only the ELISA readings from the maximally diluted samples in each dilution series are shown.
substance,measurement,setting,value
polymyxin B—cystiene—Maleimamide—fluorescein [PMB-Cys-Mal-FL],MIC,E. coli J5 [1],0.8 mg/L
same,mP,[2]; PMB-Cys-Mal-FL 10^−7 M alone,32.5
same,mP,[2]; antibody 5 × 10^-8 M & PMB-Cys-Mal-FL 10^-7 M,390.3
same,quenching of the intensity signal by anti-fluorescein antibody,[2]; not represented in Table 48,95%
same,mP,E. coli 0111:B4 bacteria; E. coli (2.7 × 10^8 bacteria) & PMB-Cys-Mal-Fl,256.8
same,mP,E. coli 0111:B4 bacteria; PMB-Cys-Mal-Fl (10^−8 M) alone,57.3
same,FLUORESCENCE of coated bacteria,E. coli 0111: B4,40 AFU
same,FLUORESCENCE of coated bacteria,Staph. aureus,5 AFU
same,Agglutination,E. coli 0111:B4 [3],−
same,Agglutination,E. coli HB101,−
same,Agglutination,Salmonella 34576,−
same,Agglutination by avidin beads,E. coli J5 [4]; Chase format,−
same,Agglutination by avidin beads,E. coli J5 [4]; Premix format,−
same,Agglutination by avidin beads,E. coli J5 [4]; Wash + Chase format,−
same,Agglutination,E. coli J5 [4]; avidin beads loaded with compound,−
same,ELISA titer,H16 bacterial strain; 2 × 10^5 bacteria,0.005
same,ELISA titer,H16 bacterial strain; 2 × 10^6 bacteria,0.162
same,% Macrophage with phagocytosed bacteria,"[5]; Table 59, 0.5 ug/ml then 10 ug/ml anti-fluorescein antibody (chase)",40%
same,% Macrophage with phagocytosed bacteria,"[5]; Table 59, 0.5 ug/ml with 10 ug/ml anti-fluorescein antibody (premix)",29%
same,% Macrophage with phagocytosed bacteria,"[5]; Table 59, opsonin alone",15%
same,Recovered bacterial colonies,"[5]; Table 59, opsonin alone",29
same,Recovered bacterial colonies,"[5]; Table 59, then anti-fluorescein antibody (chase)",76
same,Recovered bacterial colonies,"[5]; Table 59, with anti-fluorescein antibody (premix)",52
same,% Macrophage with phagocytosed bacteria,"[5]; Table 60, 1×10^8 J5 bacteria opsonized, from 100 macrophage examined, conjugates 0.5 ug/ml, anti-avidin 1/500, anti-fluorescein antibody 25 ug/ml",5%
same,% Macrophage with phagocytosed bacteria,"[5]; Table 61 (repeat assay), 1×10^8 J5 bacteria opsonized, from 100 macrophage examined, conjugates 0.5 ug/ml, anti-avidin 1/400, anti-fluorescein antibody 14 ug/ml",8%
same,enhancement of phagocytosis (in words),[5]; with anti-fluorescein antibody,Clear elevation of phagocytosis
same,MIC,"E. coli 0111:B4 [6]; Table 40, first number of the cell",0.9 mg/L
same,MIC,E. coli 0111:B4 [6]; Table 44,1 mg/L
same,ELISA absorbency at 410 nm,"[7]; Anti-PMB test antibody, Avidin coated wells, maximally diluted sample",0.033
same,ELISA absorbency at 410 nm,"[7]; Anti-PMB, PBS coated wells",0.016
same,ELISA absorbency at 410 nm,"[7]; Preimmune, Avidin coated wells",0.010
same,ELISA absorbency at 410 nm,"[7]; Preimmune, PBS coated wells",0.020
